Test results as given in patent US20180177890A1, “LIGAND-CYTOTOXIC DRUG CONJUGATE, PREPARATION METHOD THEREOF, AND USE THEREOF” (priority 2015, published 2018).
Numbered stars: 1 amine (or outer) side, 2 acyl side, 3 side chain; on linkers, the order of the positions; unused ones are H or OH. Square brackets hold non-standard residues; d marks the D form. Peptide text beside a SMILES is read from it. X1 = CO[C@H]([C@@H](C)C(=O)[*:2])[C@@H]1C[C@@H]2C[C@@H]2N1[*:1]; X3 = CO[C@H]([C@@H](C)C(=O)[*:2])[C@@H]1CC[C@H](C)N1[*:1]; X5 = CO[C@H]([C@@H](C)C(=O)[*:2])[C@@H]1C[C@H](F)CN1[*:1]; Dolaproine = CO[C@@H]([C@@H]1CCCN1)[C@@H](C)C(=O)O; Phe(2,4-Cl2) = N[C@@H](Cc1ccc(Cl)cc1Cl)C(=O)O; Dil = CC[C@H](C)[C@H](NC)[C@@H](CC(=O)O)OC; Phe(2-Cl) = N[C@@H](Cc1ccccc1Cl)C(=O)O; Phe(4-F) = N[C@@H](Cc1ccc(F)cc1)C(=O)O; Phe(4-Me) = Cc1ccc(C[C@H](N)C(=O)O)cc1; Phe(2-F) = N[C@@H](Cc1ccccc1F)C(=O)O; Phe(2-Me) = Cc1ccccc1C[C@H](N)C(=O)O; NMeV = CN[C@H](C(=O)O)C(C)C

What was measured:
HepG2 tumor cells = assay: In vitro tumor cell proliferation inhibition test (CCK-8), HepG2; format: cell-based; settings: Homo sapiens, HepG2, 76 hours incubation
Protocol: (§1) The objective of this experiment is to test the in vitro inhibition effect of the formula (D) according to the present invention on the proliferation of HepG2 tumor cells (human hepatocellular carcinoma cells, Chinese Academy of Sciences cell bank, No. #TCHu 72) and A549 tumor cells (human lung adenocarcinoma, Chinese Academy of Sciences cell bank, No. #TCHu150). The cells were treated with different concentrations of the compound in vitro. After 76 hours incubation, the cell proliferation was detected by CCK-8 reagent (Cell Counting Kit-8, Dojindo, No. CK04), and the activity of the compound in vitro was evaluated according to the IC50 value.
(§2) The following is an example of a method for in vitro proliferation inhibition test of HepG2 cells for the purpose of exemplifying the test of the compounds according to the present invention for the proliferation inhibitory activity on tumor cells in vitro. This method is also applicable to, but not limited to, the in vitro proliferation inhibition tests on other tumor cells.
HepG2 cells in logarithmic growth phase were washed with PBS (phosphate buffer, ThermoFisher) once, and added with 2-3 ml trypsin (0.25% trypsin-EDTA (1×), Gibico, Life Technologies) to digest for 2-3 min. Then, 10-15 ml of cell culture medium (DMEM/F12 medium, Invitrogen; 10% (v/v)) was added after the cells were completely digested. The digested HepG2 cells were eluted, and centrifuged at 1000 rpm for 3 min. The supernatant was discarded, and then 10-20 ml of cell culture medium were added to resuspend the cells to prepare a single cell suspension.
The HepG2 single cell suspension was mixed and the cell density was adjusted to 6×10^4 cells/ml with cell culture medium. The density-adjusted cell suspension was mixed uniformly and added to a 96-well cell culture plate at 100 μl/well. The plates were incubated in a 5% CO2 incubator at 37° C. for 18-20 hours.
(§3) The compound was dissolved with DMSO (dimethylsulfoxide, Shanghai Titan Technology Co., Ltd.) to prepare a storage solution having an initial concentration of 10 mM.
(§4) 10 μl of 10 mM compound was added to the wells of the first column of a U-shaped bottom 96-well plate (sample plate 1), and 90 μl of DMSO was added to each compound sample well of the first column, i.e., the stock solution was diluted 10 times as the starting point. Then, 3-fold gradient dilutions were performed, with each compound concentration […]. The diluent was DMSO solution. 60 μl of 100% DMSO was added to 12th column and 20 μl of 1 mM positive drug control was added to 11th column.
(§5) In a new U-shaped bottom 96-well plate (sample plate 2), each sample from the sample plate 1 was diluted 20 times with the complete medium. Then, in another new U-shaped bottom 96-well plate (sample plate 3), each well sample from the sample plate 2 was subjected to a final 10-fold dilution.
(§6) After the cell pre-culture was completed, the 96-well cell culture plate was removed and the supernatant was discarded. Each sample dilution in the 96-well sample plate 3 was successively added to a 96-well cell culture plate at 100 μl/well. Each compound sample was tested in duplicate at each concentration. […] After completion of the loading operation, the 96-well cell culture plate was incubated at 37° C. for about 76 hours in a 5% CO2 incubator.
(§7) The 96-well cell culture plate was taken and CCK-8 was added to each well at […]. The cell culture plate was gently pat and mixed for more than 10 times and incubated at 37° C. for 2 hours in a 5% CO2 incubator.
(§8) The 96-well cell culture plate was taken and placed in a microplate reader (PerkinElmer, VICTOR 3) and the absorbance at 450 nm was measured using the microplate reader.
(§9) Data was analyzed with Microsoft Excel and Graphpad Prism 5.

A549 tumor cells = assay: In vitro tumor cell proliferation inhibition test (CCK-8), A549; format: cell-based; settings: Homo sapiens, A549, 76 hours incubation
Protocol: as §1, §2, §3, §4, §5, §6, §7, §8
In accordance with the above procedure, the inhibition activity of the compound according to the present invention on the proliferation of A549 tumor cells in vitro was tested. The cell culture medium was also DMEM/F12.
as §9

Work on `CC[C@H](C)[C@@H]([C@@H](CC(=O)N1[C@H]2C[C@H]2C[C@H]1[C@H](OC)[C@@H](C)C(=O)N[C@@H](Cc1ccc(C)cc1)C(=O)O)OC)N(C)C(=O)[C@@H](NC(=O)[C@@H](NC)C(C)C)C(C)C` [Compound 15, (S)-2-((2R,3R)-3-((1S,3S,5S)-2-((3R,4S,5S)-4-((S)—N,3-dimethyl-2-((S)-3-methyl-2-(methylamino)butanamido)butanamido)-3-methoxy-5-methylheptanoyl)-2-azabicyclo[3.1.0]hexan-3-yl)-3-methoxy-2-methylpropanamido)-3-(p-tolyl)propanoic acid] (H-[NMeV]V[Dil][X1][Phe(4-Me)]-OH) yielded an IC50 (HepG2 tumor cells) of 47.5 nM and an IC50 (A549 tumor cells) of 75.5 nM.
Work on `CC[C@H](C)[C@@H]([C@@H](CC(=O)N1[C@H]2C[C@H]2C[C@H]1[C@H](OC)[C@@H](C)C(=O)N[C@@H](Cc1ccccc1Cl)C(=O)O)OC)N(C)C(=O)[C@@H](NC(=O)[C@@H](NC)C(C)C)C(C)C` [Compound 2, (S)-3-(2-chlorophenyl)-2-((2R,3R)-3-((1S,3S,5S)-2-((3R,4S,5S)-4-((S)—N,3-dimethyl-2-((S)-3-methyl-2-(methylamino)butanamido)butanamido)-3-methoxy-5-methylheptanoyl)-2-azabicyclo[3.1.0]hexan-3-yl)-3-methoxy-2-methylpropanamido)propanoic acid] (H-[NMeV]V[Dil][X1][Phe(2-Cl)]-OH) yielded an IC50 (HepG2 tumor cells) of 4.12 nM and an IC50 (A549 tumor cells) of 2.33 nM.
`CC[C@H](C)[C@@H]([C@@H](CC(=O)N1[C@H]2C[C@H]2C[C@H]1[C@H](OC)[C@@H](C)C(=O)N[C@@H](Cc1ccccc1F)C(=O)O)OC)N(C)C(=O)[C@@H](NC(=O)[C@@H](NC)C(C)C)C(C)C` [Compound 7, (S)-2-((2R,3R)-3-((1S,3S,5S)-2-((3R,4S,5S)-4-((S)—N,3-dimethyl-2-((S)-3-methyl-2-(methylamino)butanamido)butanamido)-3-methoxy-5-methylheptanoyl)-2-azabicyclo[3.1.0]hexan-3-yl)-3-methoxy-2-methylpropanamido)-3-(2-fluorophenyl)propanoic acid] (H-[NMeV]V[Dil][X1][Phe(2-F)]-OH) showed an IC50 (HepG2 tumor cells) of 283 nM and an IC50 (A549 tumor cells) of 776 nM.
`CC[C@H](C)[C@@H]([C@@H](CC(=O)N1CCC[C@H]1[C@H](OC)[C@@H](C)C(=O)N[C@@H](Cc1ccccc1C)C(=O)O)OC)N(C)C(=O)[C@@H](NC(=O)[C@@H](NC)C(C)C)C(C)C` [Compound 34, (S)-2-((2R,3R)-3-((S)-1-((3R,4S,5S)-4-((S)—N,3-dimethyl-2-((S)-3-methyl-2-(methylamino)butanamido)butanamido)-3-methoxy-5-methylheptanoyl)pyrrolidin-2-yl)-3-methoxy-2-methylpropanamido)-3-(o-tolyl)propanoic acid] (H-[NMeV]V[Dil][Dolaproine][Phe(2-Me)]-OH) was tested, and the IC50 (HepG2 tumor cells) was 18.3 nM and the IC50 (A549 tumor cells) was 32.3 nM.
With `CC[C@H](C)[C@@H]([C@@H](CC(=O)N1CCC[C@H]1[C@H](OC)[C@@H](C)C(=O)N[C@@H](Cc1ccccc1F)C(=O)O)OC)N(C)C(=O)[C@@H](NC(=O)[C@@H](NC)C(C)C)C(C)C` [Compound 25, (S)-2-((2R,3R)-3-((S)-1-((3R,4S,5S)-4-((S)—N,3-dimethyl-2-((S)-3-methyl-2-(methylamino)butanamido)butanamido)-3-methoxy-5-methylheptanoyl)pyrrolidin-2-yl)-3-methoxy-2-methylpropanamido)-3-(2-fluorophenyl)propanoic acid] (H-[NMeV]V[Dil][Dolaproine][Phe(2-F)]-OH) the IC50 (HepG2 tumor cells) was 175 nM and the IC50 (A549 tumor cells) was 200 nM.
Molecule `CC[C@H](C)[C@@H]([C@@H](CC(=O)N1C[C@@H](F)C[C@H]1[C@H](OC)[C@@H](C)C(=O)N[C@@H](Cc1ccccc1)C(=O)O)OC)N(C)C(=O)[C@@H](NC(=O)[C@@H](NC)C(C)C)C(C)C` [Compound 44, (S)-2-((2R,3R)-3-((2S,4S)-1-((3R,4S,5S)-4-((S)—N,3-dimethyl-2-((S)-3-methyl-2-(methylamino)butanamido)butanamido)-3-methoxy-5-methylheptanoyl)-4-fluoropyrrolidin-2-yl)-3-methoxy-2-methylpropanamido)-3-phenylpropanoic acid] (H-[NMeV]V[Dil][X5]F-OH) has an IC50 (A549 tumor cells) of 179 nM.
`CC[C@H](C)[C@@H]([C@@H](CC(=O)N1[C@@H](C)CC[C@H]1[C@H](OC)[C@@H](C)C(=O)N[C@@H](Cc1ccccc1)C(=O)O)OC)N(C)C(=O)[C@@H](NC(=O)[C@@H](NC)C(C)C)C(C)C` [Compound 3, (S)-2-((2R,3R)-3-((2S,5S)-1-((3R,4S,5S)-4-((S)—N,3-dimethyl-2-((S)-3-methyl-2-(methylamino)butanamido)butanamido)-3-methoxy-5-methylheptanoyl)-5-methylpyrrolidin-2-yl)-3-methoxy-2-methylpropanamido)-3-phenylpropanoic acid] (H-[NMeV]V[Dil][X3]F-OH) gave an IC50 (HepG2 tumor cells) of 9.33 nM and an IC50 (A549 tumor cells) of 16.2 nM.
For `CC[C@H](C)[C@@H]([C@@H](CC(=O)N1CCC[C@H]1[C@H](OC)[C@@H](C)C(=O)N[C@@H](Cc1ccc(Cl)cc1Cl)C(=O)O)OC)N(C)C(=O)[C@@H](NC(=O)[C@@H](NC)C(C)C)C(C)C` [Compound 33, (S)-3-(2,4-dichlorophenyl)-2-((2R,3R)-3-((S)-1-((3R,4S,5S)-4-((S)-N,3-dimethyl-2-((S)-3-methyl-2-(methylamino)butanamido)butanamido)-3-methoxy-5-methylheptanoyl)pyrrolidin-2-yl)-3-methoxy-2-methylpropanamido)propanoic acid] (H-[NMeV]V[Dil][Dolaproine][Phe(2,4-Cl2)]-OH), the IC50 (HepG2 tumor cells) was 4.66 nM and the IC50 (A549 tumor cells) was 5 nM.
Molecule `CC[C@H](C)[C@@H]([C@@H](CC(=O)N1[C@H]2C[C@H]2C[C@H]1[C@H](OC)[C@@H](C)C(=O)N[C@@H](Cc1ccccc1)C(=O)O)OC)N(C)C(=O)[C@@H](NC(=O)[C@@H](NC)C(C)C)C(C)C` [Compound 1, (S)-2-((2R,3R)-3-((1S,3S,5S)-2-((3R,4S,5S)-4-((S)—N,3-dimethyl-2-((S)-3-methyl-2-(methylamino)butanamido)butanamido)-3-methoxy-5-methylheptanoyl)-2-azabicyclo[3.1.0]hexan-3-yl)-3-methoxy-2-methylpropanamido)-3-phenylpropanoic acid] (H-[NMeV]V[Dil][X1]F-OH) has an IC50 (HepG2 tumor cells) of 8.6 nM and an IC50 (A549 tumor cells) of 12.8 nM.
`CC[C@H](C)[C@@H]([C@@H](CC(=O)N1CCC[C@H]1[C@H](OC)[C@@H](C)C(=O)N[C@@H](Cc1ccc(F)cc1)C(=O)O)OC)N(C)C(=O)[C@@H](NC(=O)[C@@H](NC)C(C)C)C(C)C` [Compound 46, (S)-2-((2R,3R)-3-((S)-1-((3R,4S,5S)-4-((S)—N,3-dimethyl-2-((S)-3-methyl-2-(methylamino)butanamido)butanamido)-3-methoxy-5-methylheptanoyl)pyrrolidin-2-yl)-3-methoxy-2-methylpropanamido)-3-(4-fluorophenyl)propanoic acid] (H-[NMeV]V[Dil][Dolaproine][Phe(4-F)]-OH) was tested, and the IC50 (A549 tumor cells) was 106 nM.
